Source: patent US7256205B2, “Nitrosated and nitrosylated H2 receptor antagonist compounds, compositions and methods of use” (NitroMed, Inc., priority 1998, dated 2007)
Entries after “also recorded” stand apart in the source; their conditions may differ.

Test system: gastric lesions produced by the ethanol/HCl mixture
Assay: ethanol/HCl mixture-induced gastric lesion test in rats
Format: in vivo, Male Sprague Dawley rats
Conditions: oral gavage 30 min before 60% ethanol in 150 mM HCl, lesions scored 60 min after
Description: The ethanol/HCl mixture-induced gastric lesion test in rats described by Takeuchi et al, J. Pharmacol. Exp. Ther., 286: 115-121 (1998), was used to evaluate the gastric lesion activity. Male Sprague Dawley rats (Charles River Laboratories, Wilmington, Mass.) weighing 230-250 g were used for the experiments. The rats were housed with laboratory chow and water ad libitum prior to the study. The rats were fasted for 24 hours with free access to water and then dosed by oral gavage with vehicle or with the test compounds given at a volume of 0.5 ml/100 g body weight. Thirty minutes after oral dosing all the rats received 1 ml of a solution of 60% ethanol in 150 mM HCl intragastrically. Food was withheld after dosing. Sixty minutes after ethanol/HCl, rats were euthanized by pre-charged CO2. The stomachs were dissected along the greater curvature, washed with a directed stream of 0.9% saline and pinned open on a sylgard based petri dish for examination of the hemorrhagic lesions. Gastric lesion score was expressed in mm and calculated by summing the length of each lesion as described by Al-Ghamdi et al, J. Int. Med. Res., 19: 2242 (1991). Results are expressed as the mean±standard error of the mean. Statistical analysis were conducted using ANOVA test followed by a Student-Newman-Keuls post-hoc test using the Abacus Concepts, Super Anova computer program (Abacus Concepts, Inc., Berkeley, Calif.).

Compound: CN/C(=N/CCSCc1nc[nH]c1C)NC#N [Cimetidine, reference compound]
- inhibition of the formation of gastric lesions (gastric lesion score) relative to vehicle alone (160 μmol/kg): failed to significantly inhibit the formation of gastric lesions; also recorded: did not significantly inhibit the formation of gastric lesions
- inhibition of the formation of gastric lesions (gastric lesion score) relative to vehicle alone (320 μmol/kg): failed to significantly inhibit the formation of gastric lesions; also recorded: did not significantly inhibit the formation of gastric lesions

Compound: CNC(=NCCSCc1ncn(C(=O)CC2(SN=O)C3CC4CC(C3)CC2C4)c1C)NC#N (stereo not shown) [Example 1, (2Z)-2-aza-3-(methylamino)-3-((2-((5-methyl-1-(2-(2-(nitrosothio)adamantan-2-yl)acetyl)imidazol-4-yl)methylthio)ethyl)amino)prop-2-enenitrile]
- inhibition of the formation of gastric lesions (gastric lesion score) relative to vehicle alone (160 μmol/kg): significantly inhibited the formation of gastric lesions
- inhibition of the formation of gastric lesions (gastric lesion score) relative to vehicle alone (320 μmol/kg): significantly inhibited the formation of gastric lesions
